Patent US20110230430A1, “SAPONIN EXTRACT FROM SAPONARIA SPP. AND USES THEREOF” (NATIONAL RESEARCH COUNCIL OF CANADA, priority 2008, published 2011)

How the values were obtained:
Format in all cases: cell-based, human
MDA-MB-231 cells [1] = assay: Dual Sensor: MitoCasp Assay in MDA-MB-231 breast cancer cells
From the text: (§1) Techniques to assay enzymatic and signaling processes involved in apoptosis have been developed as standard protocols. One example of an early step in apoptosis, is the release of cytochrome C from mitochondria and the activation of caspase-3. Induction of the caspases (a series of cytosolic proteases) is one of the most consistently observed features of apoptosis. Caspases are a family of proteolytic enzymes that transmit the apoptotic signal using a proteolytic cascade. […] Caspases 3 and 7 are effector caspases, central to the caspase cascade pathways. In particular, caspase-3 plays a central role in the process. When caspases are activated, they cleave target proteins; one of the most important of these is poly-(ADP-ribose) polymerase (PARP), which is a protein located in the nucleus. Therefore, assays detecting release of cytochrome C, detecting caspase-3 activity and detecting PARP degradation are effective determinants of apoptosis. The loss of mitochondrial membrane potential is known to occur during apoptosis. To analyze mitochondrial membrane potential, a cationic dye may be used which accumulates in the mitochondria of healthy cells. Collapse of the mitochondrial membrane potential during apoptosis prevents the dye from accumulating in the mitochondria resulting in a decrease in fluorescent intensity that can be detected with flow cytometry. Dual Sensor: MitoCasp™ (Cell Technology) used herein in the Examples is an assay that measures caspase 3/7 activity and cells with decreased mitochondrial membrane potential. In this assay, caspase 3/7 activity is detected using a cell permeable carboxyfluorescein labeled caspase inhibitor, which binds covalently to active caspases 3 and 7. Cells that contain bound inhibitor are detected by an increase in fluorescence when samples are analyzed by flow cytometry.
(§2) Following centrifugation at 500×g for 5 min, cell pellets were resuspended in PBS at 3.3×10^6 cells/mL. 300 μL cell suspension was mixed with 10 μL each of 30X Mitochondria Membrane Potential Dye and 30X Caspase 3/7 detection reagent. Following incubation for 60 min under normal growth conditions, cells were washed twice with 1× wash buffer and resuspended in 0.5 mL 1× wash buffer. Samples were analyzed by flow cytometry measuring the fluorescence emissions from 515 nm to 530 nm for caspase detection, and 574 nm to 600 nm for mitochondrial membrane potential detection.
The MDA-MB-231 cell line (ATCC #HTB-26) was derived from the pleural effusion of a patient with a breast adenocarcinoma (Cailleau et al., 1974). The cells were maintained in RPMI 1640 (Gibco) supplemented with 10% fetal bovine serum (Camera), 100 U/mL penicillin, 100 μg/mL streptomycin and 0.25 μg/mL amphotericin B. Cultures were maintained in medium at 37° C. with 5% CO2 and 100% relative humidity. […]

CRL-2522 cells = assay: Dual Sensor: MitoCasp Assay in CRL-2522 normal fibroblast cells
From the text: as §1, §2
CRL-2522 cells, acquired from ATCC, (American Type Culture Collection) are normal fibroblast cells that originated from human foreskin. CRL-2522 cells were maintained in RPMI 1640 medium (Gibco) supplemented with 10% fetal bovine serum (Cansera), 100 U/mL penicillin, 100 μg/mL streptomycin and 0.25 μg/mL amphotericin B. Cultures were maintained in medium at 37° C. with 5% CO2 and 100% relative humidity. […]

PC-3 cells = assay: Vybrant Apoptosis Assay Kit #2 in PC-3 cells
From the text: (§3) Another apoptotic assay is the Annexin-V detection of extracellular phosphatidlyserine (PS). Normally, phosphatidylserine is localized on the inner membrane of the plasmalemma. However, during the early stages of apoptosis, externalization of PS takes place. Annexin-V is a calcium binding protein which binds to PS and can be observed with annexin-V-FITC staining by flow cytometry (Martin, et al., 1995). Alexa Fluor® 488-labeled Annexin V, which has a high affinity for PS, is used to detect apoptotic cells by binding to PS on the outer surface of the cell. Propidium iodide staining is used concurrently to detect dead cells. When cells are analyzed by flow cytometry apoptotic cells show Annexin V staining, late apoptotic cells show PI and Annexin V staining, and dead cells show only PI staining. The Vybrant® Apoptosis Assay Kit #2 (Molecular Probes™) used herein in the Examples is an assay that measures Annexin-V positive cells.
PC-3 cells (ATCC #CRL-1435) were derived from a prostate adenocarcinoma (Kaighn et al., 1979). They were maintained in RPMI 1640 medium (Gibco) supplemented with 10% fetal bovine serum (Cansera), 100 U/mL penicillin, and 100 μg/mL streptomycin and 0.25 μg/mL amphotericin B. Cultures were maintained in medium at 37° C. with 5% CO2 and 100% relative humidity.
PC-3 cells were seeded in tissue culture flasks with regular growth medium and maintained under normal conditions. […] Following incubation under normal growth conditions for the specified time, cells were washed once with cold phosphate-buffered saline (PBS) (137 mM NaCl, 2.7 mM KCl, 4.3 mM Na2HPO4.7H2O, 1.4 mM KH2PO4) and harvested as previously described. Assays were carried out according to instructions given in kits. All Flow Cytometry was performed using a Coulter Epics XL (Beckman).

MDA-MB-231 cells [2] = assay: Vybrant Apoptosis Assay Kit #2 in MDA-MB-231 cells
From the text: as §3
The MDA-MB-231 cell line (ATCC #HTB-26) was derived from the pleural effusion of a patient with a breast adenocarcinoma (Cailleau et al., 1974). The cells were maintained in RPMI 1640 (Gibco) supplemented with 10% fetal bovine serum (Camera), 100 U/mL penicillin, 100 μg/mL streptomycin and 0.25 μg/mL amphotericin B. Cultures were maintained in medium at 37° C. with 5% CO2 and 100% relative humidity.
MDA-MB-231 cells were treated with PC1448 and assayed for apoptosis as previously described for PC-3 cells.

[3] = 5.0 μM saponin, 36 hours (comparison of saponins)
[4] = CRL-2522 cells, 2.5 μM PC1448, 37 hr
[5] = CRL-2522 cells, 5.0 μM PC1448, 37 hr
[6] = CRL-2522 cells, 10.0 μM PC1448, 37 hr
[7] = CRL-2522 cells, 14 μM PC1448, 10 hr
[8] = CRL-2522 cells, 14 μM PC1448, 20 hr
[9] = CRL-2522 cells, 14 μM PC1448, 30 hr
[10] = CRL-2522 cells, 15.0 μM PC1448, 37 hr

Substance: Segetoside H [PC1448]
- Cells with caspase 3/7 activity (MDA-MB-231 cells [1]; 2.5 μM PC1448, 36 hr): 19.3%
- Cells with decreased mitochondrial membrane potential (MDA-MB-231 cells [1]; 2.5 μM PC1448, 36 hr): 9.9%
- Cells with caspase 3/7 activity (MDA-MB-231 cells [1]; 5.0 μM PC1448, 36 hr): 25.8%
- Cells with decreased mitochondrial membrane potential (MDA-MB-231 cells [1]; 5.0 μM PC1448, 36 hr): 12.6%
- Cells with caspase 3/7 activity (MDA-MB-231 cells [1]; [3]): 12.8%
- Cells with decreased mitochondrial membrane potential (MDA-MB-231 cells [1]; [3]): 5.3%
- Cells with caspase 3/7 activity (MDA-MB-231 cells [1]; 10.0 μM PC1448, 36 hr): 40.0%
- Cells with decreased mitochondrial membrane potential (MDA-MB-231 cells [1]; 10.0 μM PC1448, 36 hr): 17.9%
- Cells with caspase 3/7 activity (MDA-MB-231 cells [1]; 15.0 μM PC1448, 36 hr): 40.9%
- Cells with decreased mitochondrial membrane potential (MDA-MB-231 cells [1]; 15.0 μM PC1448, 36 hr): 20.8%
- Concentration of greatest effect on apoptosis (MDA-MB-231 cells [1]; 36 hours): above 10 μM
- Induction of apoptosis at concentrations as low as (MDA-MB-231 cells [1]; 36 hours): 5.0 µM
- Cells with caspase 3/7 activity (CRL-2522 cells; [4]): 1.7%
- Cells with decreased mitochondrial membrane potential (CRL-2522 cells; [4]): 5.6%
- Cells with caspase 3/7 activity (CRL-2522 cells; [5]): 4.0%
- Cells with decreased mitochondrial membrane potential (CRL-2522 cells; [5]): 5.0%
- Cells with caspase 3/7 activity (CRL-2522 cells; [6]): 21.9%
- Cells with decreased mitochondrial membrane potential (CRL-2522 cells; [6]): 4.6%
- Effect on apoptosis (in words) (CRL-2522 cells; CRL-2522 cells, 14 μM PC1448, 10-30 hr): no significant effect on apoptosis
- Cells with caspase 3/7 activity (CRL-2522 cells; [7]): 3.7%
- Cells with decreased mitochondrial membrane potential (CRL-2522 cells; [7]): 1.4%
- Cells with caspase 3/7 activity (CRL-2522 cells; [8]): 5.5%
- Cells with decreased mitochondrial membrane potential (CRL-2522 cells; [8]): 1.4%
- Cells with caspase 3/7 activity (CRL-2522 cells; [9]): 32.8%
- Cells with decreased mitochondrial membrane potential (CRL-2522 cells; [9]): 0.8%
- Cells with caspase 3/7 activity (CRL-2522 cells; [10]): 9.4%
- Cells with decreased mitochondrial membrane potential (CRL-2522 cells; [10]): 18.5%
- Cells with Caspase 3/7 activity and decreased mitochondrial membrane potential vs untreated (in words) (CRL-2522 cells; CRL-2522 cells, PC1448 15.0-2.5 μM, 37 hours): variable increase
- Apoptosis in non-cancerous cell line (summary in words) (CRL-2522 cells; fibroblast cell line CRL-2522, summary of the Examples): no or little apoptosis
- Annexin-V positive cells (PC-3 cells; 14 μM PC1448, 06 hr): 12.4%
- Annexin-V positive cells (PC-3 cells; 14 μM PC1448, 16 hr): 28.3%
- Annexin-V positive cells (PC-3 cells; 14 μM PC1448, 24 hr): 34.7%
- Increase in Annexin V positive cells vs untreated (PC-3 cells; 14 μM PC1448, 24 hr): three fold
- Increase in Annexin V positive cells vs untreated (MDA-MB-231 cells [2]; 14 μM PC1448, 12 hours): 2.7 fold
- Annexin-V positive cells (MDA-MB-231 cells [2]; 14 μM PC1448, 12 hr): 46.3%
- Annexin-V positive cells (MDA-MB-231 cells [2]; 14 μM PC1448, 24 hr): 37.9%
- Annexin-V positive cells (MDA-MB-231 cells [2]; 14 μM PC1448, 48 hr): 37.9%
